One series addresses T1, hERG (Homo sapiens, UniProt Q12809).
T1 construct: purchased ThermoFisher; host or cells: hERG cell membrane supplied with the kit
Briefly: hERG fluorescence polarization inhibition experiment. Conditions: hERG cell membrane, 25° C. 2 hours, read-out: hERG (IC50 range, competitive binding vs tracer). The method, then: hERG (Ether-a-go-go-related Gene Potassium Channel) Inhibition Experiment
Reagent: Predictor™ hERG Fluorescence Polarization Assay Kit, Manufacturer: ThermoFisher
The above test kit was used to evaluate the potential of the compound for inducing heart QT prolongation. According to the method as indicated in the specification of the test kit, the test compound, the positive control (E4031) and negative control (Experimental buffer solution) in the kit were added to a microwell plate containing hERG cell membrane, and then a tracer having high affinity to hERG was added. The microwell plate was then incubated at 25° C. for 2 hours, a BMG PHAREStar polyfunctional enzyme marker was used to test the variations in the fluorescent polarization value. By calculating the percent inhibition rates (%) at different concentrations, the range of the half inhibition concentration (IC50) was determined:
Percent inhibition rate (%)=(1-(mP of the test compound-mP of 30 μM E4031)/(mP of experimental buffer solution-mP of 30 μM E4031))*100.

The target in the next series is T2, VAP-1 (Homo sapiens, UniProt Q16853).
T2 construct: purchased R&D Systems
T2 sequence (Q16853 1-763): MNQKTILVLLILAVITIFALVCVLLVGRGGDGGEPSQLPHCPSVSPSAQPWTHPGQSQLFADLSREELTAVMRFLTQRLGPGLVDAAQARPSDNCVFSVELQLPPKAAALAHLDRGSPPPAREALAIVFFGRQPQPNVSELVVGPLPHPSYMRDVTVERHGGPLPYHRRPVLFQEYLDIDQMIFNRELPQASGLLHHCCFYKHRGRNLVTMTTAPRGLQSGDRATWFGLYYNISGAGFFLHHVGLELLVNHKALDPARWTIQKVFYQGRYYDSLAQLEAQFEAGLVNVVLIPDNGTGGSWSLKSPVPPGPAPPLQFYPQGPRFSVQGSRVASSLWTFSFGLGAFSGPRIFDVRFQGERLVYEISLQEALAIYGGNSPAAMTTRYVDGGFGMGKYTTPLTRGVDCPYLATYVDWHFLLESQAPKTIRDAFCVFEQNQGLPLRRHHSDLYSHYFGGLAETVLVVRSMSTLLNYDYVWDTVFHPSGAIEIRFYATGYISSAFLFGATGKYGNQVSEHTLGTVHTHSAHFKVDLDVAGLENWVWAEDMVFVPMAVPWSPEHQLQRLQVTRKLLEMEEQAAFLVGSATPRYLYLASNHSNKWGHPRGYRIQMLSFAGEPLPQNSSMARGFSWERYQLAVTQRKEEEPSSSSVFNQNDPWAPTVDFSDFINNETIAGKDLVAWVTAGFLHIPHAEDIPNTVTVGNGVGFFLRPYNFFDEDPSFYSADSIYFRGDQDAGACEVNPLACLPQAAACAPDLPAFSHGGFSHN
Description: Inhibition of the enzymatic activity of VAP-1 in vitro (Amplex Red). The conditions noted are these: VAP-1 protein about 20 nM, 10 min pre-incubation, benzylamine substrate; read-out: IC50, inhibition against the enzymatic activity of VAP-1. The series is classed as biochemical. The method, then:
Inhibition Experiment Against the Enzymatic Activity of VAP-1(Vascular Adhesion Protein 1) in vitro
(§1) Test kit: Amplex® Red Monoamine Oxidase Assay, Manufacturer: ThermoFisher
(§2) Reaction buffer solution: 50 mM PBS, pH 7.4
Enzyme: VAP-1, Manufacturer: R&D Systems
VAP-1 protein (about 20 nM) and different concentrations of the test compound were pre-incubated at room temperature for 10 minutes, followed by an addition of […] benzylamine hydrochloride, 1 U/mL HRP and 200 μM Amplex Red reagent according to the specification of the test kit to start the reaction. The reaction plate was placed in the enzyme marker, and in kinetic mode, fluorescence signals were measured at Ex/Em=540/590 nm. The relative inhibition activity of each concentration group was calculated, wherein the ratio (slope) of fluorescence signal to reaction time in the linear range is the reaction rate, the vehicle group (DMSO) is the negative control, and the reaction buffer solution group (without enzymes and the compounds) is the blank control. The half inhibition concentration (IC50) of the compound was calculated according to four-parameter model fitting curve.

Series [1] addresses T3, VAP-1 in abdominal fat of mice (Mus musculus, UniProt O70423).
T3 construct: abdominal fat was collected and homogenized; from tissue; host or cells: abdominal fat of BALBc mice (homogenate supernatant)
T3 sequence (O70423 1-765): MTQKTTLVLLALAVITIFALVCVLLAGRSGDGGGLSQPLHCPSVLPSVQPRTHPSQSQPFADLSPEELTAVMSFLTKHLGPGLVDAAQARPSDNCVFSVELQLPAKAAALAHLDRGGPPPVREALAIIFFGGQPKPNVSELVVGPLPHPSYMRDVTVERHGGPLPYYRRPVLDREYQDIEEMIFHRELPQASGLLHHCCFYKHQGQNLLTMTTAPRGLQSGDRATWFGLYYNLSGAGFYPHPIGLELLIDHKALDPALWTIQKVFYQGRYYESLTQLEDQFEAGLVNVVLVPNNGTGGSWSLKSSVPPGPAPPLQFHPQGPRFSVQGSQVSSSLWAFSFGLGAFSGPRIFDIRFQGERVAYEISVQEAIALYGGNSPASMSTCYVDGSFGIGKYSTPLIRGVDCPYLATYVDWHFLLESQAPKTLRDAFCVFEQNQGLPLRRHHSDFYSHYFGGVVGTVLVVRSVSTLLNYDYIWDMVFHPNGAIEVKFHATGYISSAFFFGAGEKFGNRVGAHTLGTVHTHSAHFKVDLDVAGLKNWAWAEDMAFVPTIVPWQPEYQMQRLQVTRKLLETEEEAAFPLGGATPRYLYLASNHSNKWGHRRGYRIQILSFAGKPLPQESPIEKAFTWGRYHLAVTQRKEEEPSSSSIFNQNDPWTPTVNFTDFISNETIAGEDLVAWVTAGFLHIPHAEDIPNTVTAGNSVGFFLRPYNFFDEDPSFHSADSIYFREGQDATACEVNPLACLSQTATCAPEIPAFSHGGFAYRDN
Description: Inhibition of the enzymatic activity of VAP-1 ex-vivo, abdominal fat after oral dosing. Type of series: in vivo, BALBc mice. Conditions: abdominal fat collected after six hours; for inhibition at 0.5 mg/kg / inhibition at 2 mg/kg: mouse, read-out: Inhibition rate (%) against the enzymatic activity of VAP-1 (ex-vivo); for inhibition at 0.5 mg/kg: 0.5 mg/kg oral; for Inhibition rate (%) against the enzymatic activity of VAP-1 (ex-vivo) / inhibition at 2 mg/kg: 2 mg/kg oral. How it is done:
Inhibition Experiment Against the Enzymatic Activity (ex-vivo)
Tissue homogenate buffer solution (20 mM HEPES, pH 7.2, 1 mM EDTA, 250 mM sucrose, PMSF 0.2 mM)
as §2, §1
BALBc mice were administrated orally with different doses of the test compound, and the vehicle group was used as the control group. After six hours, abdominal fat was collected and homogenized at 1:20 (w/v) with the pre-cooled homogenate buffer solution, and thereafter, the homogenate was centrifuged at 10,000 g and 4° C. or 10 minutes, the supernatant was collected and stored at -80° C. for further use.
A test sample was diluted with the reaction buffer solution and successively added with the inhibition solution A: 1 μM Clorgyline+1 μM pargylin, to inhibit the activities of MAO-A and MAO-B, and the inhibition solution B: 1 μM Clorgyline+1 μM Pargylin+1 μM Mofegiline as the blank control, and after being incubated at room temperature for 20 min, 500 μM benzylamine hydrochloride, 1 U/mL HRP and 200 μM Amplex Red reagent were added to start the reaction. By referring to the method in “Experiment of inhibiting the enzymatic activity of VAP-1”, relative activity of each dose group was calculated, wherein the ratio of the fluorescent signal to reaction time in the linear range is the reaction rate, and the vehicle group is the positive control, thereby to study the inhibition of the compound against the enzymatic activity of VAP-1 in abdominal fat of mice.

Where a name gives a salt, the structure may show the parent alone.

T1 sequence (Q12809 whole entry): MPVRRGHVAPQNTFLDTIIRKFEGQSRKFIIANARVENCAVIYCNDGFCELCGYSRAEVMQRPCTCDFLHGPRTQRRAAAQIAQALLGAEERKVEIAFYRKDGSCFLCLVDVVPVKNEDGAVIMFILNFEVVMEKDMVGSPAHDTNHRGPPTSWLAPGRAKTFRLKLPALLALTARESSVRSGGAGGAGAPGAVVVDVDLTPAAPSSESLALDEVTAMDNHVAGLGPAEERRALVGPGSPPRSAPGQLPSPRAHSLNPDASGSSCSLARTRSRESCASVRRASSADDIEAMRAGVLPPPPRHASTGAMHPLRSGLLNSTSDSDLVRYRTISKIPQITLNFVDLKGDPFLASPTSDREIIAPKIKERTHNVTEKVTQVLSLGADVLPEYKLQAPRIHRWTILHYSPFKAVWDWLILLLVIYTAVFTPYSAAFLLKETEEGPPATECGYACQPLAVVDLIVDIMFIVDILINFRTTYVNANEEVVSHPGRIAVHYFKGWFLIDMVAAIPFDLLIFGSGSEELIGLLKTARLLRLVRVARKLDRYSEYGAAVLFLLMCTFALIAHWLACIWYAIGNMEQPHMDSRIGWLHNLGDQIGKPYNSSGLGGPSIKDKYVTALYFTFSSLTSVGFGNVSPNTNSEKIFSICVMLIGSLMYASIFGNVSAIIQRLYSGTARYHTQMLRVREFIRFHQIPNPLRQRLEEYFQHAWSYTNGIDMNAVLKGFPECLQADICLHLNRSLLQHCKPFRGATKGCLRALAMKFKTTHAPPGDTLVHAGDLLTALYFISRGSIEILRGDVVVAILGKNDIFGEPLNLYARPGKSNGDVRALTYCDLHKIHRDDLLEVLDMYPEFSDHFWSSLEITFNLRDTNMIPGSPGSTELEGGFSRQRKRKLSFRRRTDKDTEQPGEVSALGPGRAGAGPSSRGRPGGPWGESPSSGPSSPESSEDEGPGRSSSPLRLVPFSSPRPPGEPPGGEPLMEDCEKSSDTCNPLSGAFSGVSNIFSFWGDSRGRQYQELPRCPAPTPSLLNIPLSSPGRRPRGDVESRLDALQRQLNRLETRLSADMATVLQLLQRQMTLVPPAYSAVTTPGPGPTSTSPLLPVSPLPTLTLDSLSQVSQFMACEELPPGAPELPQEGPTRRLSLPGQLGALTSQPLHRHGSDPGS

As to `NC/C(=C/F)COc1ccc(C(=O)Nc2ccccc2)cc1` [TM1-Z, (Z)-N-phenyl-4-((2-aminomethyl-3-fluoroallyl)oxy)-benzamide trifluoroacetate], the IC50 (commonly the concentration at which inhibition is half-maximal) at hERG is above 10000 nM; at VAP-1, 0.7 ± 0.1 nM. For the same compound, in series [1], the inhibition (as a rule, the drop in the measured response relative to a control, in per cent) at 0.5 mg/kg was determined as 93.3 ± 5.4%.

For `NCC(=CF)COc1ccc2c(c1)CCNC2=O.O=C(O)C(F)(F)F` [TM26, 6-((2-aminomethyl-3-fluoroallyl)oxy)-3,4-dihydroisoquinolin-1(2H)-one trifluoroacetate], the IC50 was above 30000 nM at hERG and 5.8 ± 1 nM on VAP-1. Moreover, the “Inhibition rate (%) against the enzymatic activity of VAP-1 (ex-vivo)” value (“Inhibition rate (%)” for short) in series [1] is “completely inhibited”. Also, the inhibition at 2 mg/kg in series [1] was 112 ± 7.1%.

Regarding `NCC(=CF)COc1ccc2c(c1)CN(Cc1ccc(Cl)cc1)C2=O` [TM33, 5-((2-aminomethyl-3-fluoroallyl)oxy)-2-(4-chlorobenzyl)isoindolin-1-one], on VAP-1, the half-maximal inhibitory concentration (IC50) amounted to 3.3 ± 0.2 nM. In series [1], the “Inhibition rate (%)” value is “completely inhibited” and the inhibition at 2 mg/kg is 105 ± 9.1%.

As to `NC/C(=C/F)COc1ccc(-c2ncccn2)cc1` [TM39-Z, (Z)-2-(4-(2-pyrimidyl)phenoxymethyl)-3-fluoroallylamine trifluoroacetate], the half-maximal inhibitory concentration (IC50) on hERG was above 10000 nM; on VAP-1, 0.7 ± 0.1 nM. Further, in series [1], the inhibition at 0.5 mg/kg amounted to 93.2 ± 3.9%.

Regarding `NCC(=CF)COc1ccc(-c2nc3ccc(Cl)cc3s2)cc1` [TM41, 2-(4-(6-chloro-benzothiazol-2-yl)phenoxymethyl)-3-fluoroallylamine trifluoroacetate], the concentration for half-maximal inhibition (IC50) on VAP-1 is 4.8 ± 0.7 nM. Moreover, the inhibition at 2 mg/kg in series [1] was determined as 96.1 ± 17.4%.

Consider `NCC(=CF)COc1ccc(-c2nc3ccccc3[nH]2)cc1.O=C(O)C(F)(F)F` [TM42, 2-(4-(1H-benzoimidazol-2-yl)phenoxymethyl)-3-fluoroallylamine trifluoroacetate], for which the half-maximal inhibitory concentration (IC50) at hERG is above 10000 nM; at VAP-1, 1.6 ± 0.2 nM. The “Inhibition rate (%)” value in series [1] was “completely inhibited”. Further, the inhibition at 2 mg/kg in series [1] amounted to 106 ± 8.4%.

Regarding `NCC(=CF)COc1ccc(C(=O)N2CCC(c3ccccc3)CC2)cc1` [TM44, (4-((2-aminomethyl-3-fluoroallyl)oxy)phenyl)-(4-phenylpiperidin-1-yl)methanone trifluoroacetate], the IC50 at hERG is above 10000 nM; on VAP-1 it was 3.4 ± 0.4 nM. Moreover, in series [1], the inhibition at 2 mg/kg amounted to 95.8 ± 6.2%.

On to `NCC(=CF)COc1ccc(C(=O)N2CCc3ccccc3C2)cc1` [TM45, (4-((2-aminomethyl-3-fluoroallyl)oxy)phenyl)-(3,4-dihydroisoquinolin-2(1H)-yl)methanone trifluoroacetate], for which the IC50 at hERG is above 10000 nM; on VAP-1, 0.9 ± 0.1 nM. For the same compound, the inhibition at 2 mg/kg in series [1] was 91.9 ± 6.4%.

For the compound `NCC(=CF)COc1ccc(C(=O)Nc2ccc(F)cc2)cc1` [TM61, N-(4-fluorophenyl)-4-((2-aminomethyl-3-fluoroallyl)oxy)-benzamide trifluoroacetate], the IC50 on hERG is above 10000 nM; at VAP-1 it was 0.5 nM. In addition, the inhibition at 2 mg/kg in series [1] turned out to be 99.7 ± 8.7%.

Turning to `NC/C(=C\F)COc1ccc(C(=O)N[C@H]2CCCc3ccccc32)cc1` [TM63-E, (E)-(S)-N-(1,2,3,4-tetrahydro-1-naphthyl)-4-(2-aminomethyl-3-fluoroallyl)oxy)-benzamide trifluoroacetate], the concentration for half-maximal inhibition (IC50) is above 10000 nM at hERG and 5.7 ± 0.8 nM on VAP-1.

As for `NC/C(=C/F)COc1ccc(C(=O)N[C@H]2CCCc3ccccc32)cc1` [TM63-Z, (Z)-(S)-N-(1,2,3,4-tetrahydro-1-naphthyl)-4-((2-aminomethyl-3-fluoroallyl)oxy)-benzamide trifluoroacetate], the IC50 was above 10000 nM on hERG and 4.4 ± 0.8 nM on VAP-1.

Consider `Cc1ccc(N(C)C(=O)c2ccc(OCC(=CF)CN)cc2)cc1` [TM67, N-methyl-N-p-methylphenyl-4-((2-aminomethyl-3-fluoroallyl)oxy)-benzamide trifluoroacetate], for which the figures for the IC50 on hERG and on VAP-1 were above 30000 nM and 11.5 ± 1.3 nM, respectively.

As to `Cc1csc(-c2ccc(OCC(=CF)CN)cc2)n1` [TM70, 2-(4-(4-methylthiazolyl-2-phenoxy)methyl)-3-fluoroallylamine trifluoroacetate], the IC50 on hERG is above 30000 nM; at VAP-1, 0.2 nM.
